From ChEMBL document CHEMBL1148076, “Cucurbitacins: differential cytotoxicity, dereplication and first isolation from Gonystylus keithii” (1994)

Experiments:
Type in all cases: functional
[1] = tested on: OVCAR-4; assay: Growth inhibition of human OVCAR4 cells
[2] = tested on: SF-268; assay: Growth inhibition of human SF268 cells
[3] = tested on: OVCAR-3; assay: Growth inhibition of human OVCAR-3 cells
[4] = tested on: HCC 2998; assay: Growth inhibition of human HCC2998 cells
[5] = Growth inhibition of human […] cells
[6] = tested on: HCT-15; assay: Growth inhibition of human HCT15 cells
[7] = tested on: ACHN; assay: Growth inhibition of human ACHN cells
[8] = tested on: MOLT-4; assay: Growth inhibition of human MOLT4 cells
[9] = tested on: PC-3; assay: Growth inhibition of human PC3 cells
[10] = tested on: UO-31; assay: Growth inhibition of human UO31 cells
[11] = tested on: M14; assay: Growth inhibition of human M14 cells
[12] = tested on: MDA-N; assay: Growth inhibition of human MDA-N cells
[13] = tested on: COLO 205; assay: Growth inhibition of human COLO205 cells
[14] = tested on: OVCAR-8; assay: Growth inhibition of human OVCAR8 cells
[15] = tested on: T47D; assay: Growth inhibition of human T47D cells
[16] = tested on: CAKI-1; assay: Growth inhibition of human Caki1 cells
[17] = tested on: SNB-19; assay: Growth inhibition of human SNB19 cells
[18] = tested on: NCI-H226; assay: Growth inhibition of human NCI-H226 cells
[19] = tested on: SK-MEL-5; assay: Growth inhibition of human SK-MEL-5 cells
[20] = tested on: A498; assay: Growth inhibition of human A498 cells
[21] = tested on: TK-10; assay: Growth inhibition of human TK10 cells
[22] = tested on: HT-29; assay: Growth inhibition of human HT-29 cells
[23] = tested on: MDA-MB-435; assay: Growth inhibition of human MDA-MB-435 cells
[24] = tested on: MDA-MB-231; assay: Growth inhibition of human MDA-MB-231 cells
[25] = tested on: SR; assay: Growth inhibition of human SR cells
[26] = tested on: UACC-257; assay: Growth inhibition of human UACC257 cells
[27] = tested on: RXF 393; assay: Growth inhibition of human RXF393 cells
[28] = tested on: NCI/ADR-RES; assay: Growth inhibition of human NCI/ADR-RES cells
[29] = tested on: IGROV-1; assay: Growth inhibition of human IGROV1 cells
[30] = tested on: DU-145; assay: Growth inhibition of human DU145 cells
[31] = tested on: SN12C; assay: Growth inhibition of human SN12C cells
[32] = tested on: A549; assay: Growth inhibition of human A549 cells
[33] = tested on: SF-539; assay: Growth inhibition of human SF539 cells
[34] = tested on: SF-295; assay: Growth inhibition of human SF295 cells
[35] = tested on: SK-OV-3; assay: Growth inhibition of human SKOV3 cells
[36] = Growth inhibition of human Hs 578T cells
[37] = tested on: 786-0; assay: Growth inhibition of human 786-0 cells
[38] = tested on: CCRF-CEM; assay: Growth inhibition of human CCRF-CEM cells
[39] = tested on: SK-MEL-2; assay: Growth inhibition of human SK-MEL-2 cells
[40] = tested on: HCT-116; assay: Growth inhibition of human HCT116 cells
[41] = tested on: SK-MEL-28; assay: Growth inhibition of human SK-MEL-28 cells
[42] = tested on: BT-549; assay: Growth inhibition of human BT549 cells
[43] = tested on: OVCAR-5; assay: Growth inhibition of human OVCAR5 cells
[44] = tested on: NCI-H460; assay: Growth inhibition of human NCI-H460 cells
[45] = tested on: HL-60(TB); assay: Growth inhibition of human HL-60(TB) cells
[46] = tested on: MCF7; assay: Growth inhibition of human MCF7 cells
[47] = tested on: Malme-3M; assay: Growth inhibition of human MALME-3M cells
[48] = tested on: SW-620; assay: Growth inhibition of human SW620 cells
[49] = tested on: NCI-H522; assay: Growth inhibition of human NCI-H522 cells
[50] = tested on: EKVX; assay: Growth inhibition of human EKVX cells
[51] = tested on: LOX IMVI; assay: Growth inhibition of human LOXIMVI cells
[52] = tested on: U-251; assay: Growth inhibition of human U251 cells
[53] = tested on: HOP-62; assay: Growth inhibition of human HOP62 cells
[54] = tested on: KM12; assay: Growth inhibition of human KM12 cells
[55] = tested on: NCI-H322M; assay: Growth inhibition of human NCI-H322M cells
[56] = tested on: UACC-62; assay: Growth inhibition of human UACC62 cells
[57] = tested on: NCI-H23; assay: Growth inhibition of human NCI-H23 cells
[58] = tested on: HOP-92; assay: Growth inhibition of human HOP92 cells
[59] = tested on: K562; assay: Growth inhibition of human K562 cells
[60] = tested on: SNB-75; assay: Growth inhibition of human SNB75 cells
[61] = read-out: pLC50 (the source's name) (converted)

SMILES: CC(=O)OC(C)(C)/C=C/C(=O)[C@](C)(O)[C@H]1[C@H](O)C[C@@]2(C)[C@@H]3CC=C4[C@@H](C=C(O)C(=O)C4(C)C)[C@]3(C)C(=O)C[C@]12C [CUCURBITACIN E]
- CC50 [1, 61]: 10 µM
- TGI ([1]; read-out: pTGI (converted)): 0.417 µM
- CC50 [2, 61]: 12.9 µM
- TGI ([2]; read-out: pTGI (converted)): 0.1 µM
- CC50 [3, 61]: 3.72 µM
- TGI ([3]; read-out: pTGI (converted)): 0.0832 µM
- CC50 [4, 61]: 10 µM
- TGI ([4]; read-out: pTGI (converted)): 0.912 µM
- CC50 [5, 61]: 34.7 µM
- TGI ([5]; read-out: pTGI (converted)): 8.13 µM
- CC50 [6, 61]: 11 µM
- TGI ([6]; read-out: pTGI (converted)): 0.537 µM
- CC50 [7, 61]: 2.51 µM
- TGI ([7]; read-out: pTGI (converted)): 0.141 µM
- CC50 [8, 61]: 34.7 µM
- TGI ([8]; read-out: pTGI (converted)): 15.1 µM
- CC50 [9, 61]: 6.76 µM
- TGI ([9]; read-out: pTGI (converted)): 0.257 µM
- CC50 [10, 61]: 2.29 µM
- TGI ([10]; read-out: pTGI (converted)): 0.0776 µM
- CC50 [11, 61]: 6.76 µM
- TGI ([11]; read-out: pTGI (converted)): 0.646 µM
- CC50 [12, 61]: 14.1 µM
- TGI ([12]; read-out: pTGI (converted)): 1.91 µM
- CC50 [13, 61]: 17 µM
- TGI ([13]; read-out: pTGI (converted)): 5.75 µM
- CC50 [14, 61]: 15.1 µM
- TGI ([14]; read-out: pTGI (converted)): 2.29 µM
- CC50 [15, 61]: 12.9 µM
- TGI ([15]; read-out: pTGI (converted)): 2 µM
- CC50 [16, 61]: 0.0794 µM
- TGI ([16]; read-out: pTGI (converted)): 0.0209 µM
- CC50 [17, 61]: 1.51 µM
- TGI ([17]; read-out: pTGI (converted)): 0.209 µM
- CC50 [18, 61]: 9.77 µM
- TGI ([18]; read-out: pTGI (converted)): 0.0912 µM
- CC50 [19, 61]: 0.759 µM
- TGI ([19]; read-out: pTGI (converted)): 0.12 µM
- CC50 [20, 61]: 0.0631 µM
- TGI ([20]; read-out: pTGI (converted)): 0.0257 µM
- CC50 [21, 61]: 3.31 µM
- TGI ([21]; read-out: pTGI (converted)): 0.129 µM
- CC50 [22, 61]: 10 µM
- TGI ([22]; read-out: pTGI (converted)): 1.82 µM
- CC50 [23, 61]: 22.9 µM
- TGI ([23]; read-out: pTGI (converted)): 2.09 µM
- CC50 [24, 61]: 0.891 µM
- TGI ([24]; read-out: pTGI (converted)): 0.0537 µM
- CC50 [25, 61]: 34.7 µM
- TGI ([25]; read-out: pTGI (converted)): 14.1 µM
- CC50 [26, 61]: 11 µM
- TGI ([26]; read-out: pTGI (converted)): 1.2 µM
- CC50 [27, 61]: 0.347 µM
- TGI ([27]; read-out: pTGI (converted)): 0.049 µM
- CC50 [28, 61]: 33.9 µM
- TGI ([28]; read-out: pTGI (converted)): 8.13 µM
- CC50 [29, 61]: 3.89 µM
- TGI ([29]; read-out: pTGI (converted)): 0.0199 µM
- CC50 [30, 61]: 12.9 µM
- TGI ([30]; read-out: pTGI (converted)): 2.09 µM
- CC50 [31, 61]: 12.9 µM
- TGI ([31]; read-out: pTGI (converted)): 1.41 µM
- CC50 [32, 61]: 33.9 µM
- TGI ([32]; read-out: pTGI (converted)): 5.01 µM
- CC50 [33, 61]: 0.331 µM
- TGI ([33]; read-out: pTGI (converted)): 0.0182 µM
- CC50 [34, 61]: 5.62 µM
- TGI ([34]; read-out: pTGI (converted)): 0.0813 µM
- CC50 [35, 61]: 12 µM
- TGI ([35]; read-out: pTGI (converted)): 0.55 µM
- CC50 [36, 61]: 34.7 µM
- TGI ([36]; read-out: pTGI (converted)): 0.0891 µM
- CC50 [37, 61]: 4.07 µM
- TGI ([37]; read-out: pTGI (converted)): 0.129 µM
- CC50 [38, 61]: 34.7 µM
- TGI ([38]; read-out: pTGI (converted)): 6.31 µM
- CC50 [39, 61]: 0.417 µM
- TGI ([39]; read-out: pTGI (converted)): 0.0257 µM
- CC50 [40, 61]: 1.82 µM
- TGI ([40]; read-out: pTGI (converted)): 0.372 µM
- CC50 [41, 61]: 4.17 µM
- TGI ([41]; read-out: pTGI (converted)): 0.0776 µM
- CC50 [42, 61]: 0.151 µM
- TGI ([42]; read-out: pTGI (converted)): 0.0129 µM
- CC50 [43, 61]: 18.2 µM
- TGI ([43]; read-out: pTGI): 5.25 µM
- CC50 [44, 61]: 19.1 µM
- TGI ([44]; read-out: pTGI (converted)): 2.19 µM
- CC50 [45, 61]: 34.7 µM
- TGI ([45]; read-out: pTGI (converted)): 6.61 µM
- CC50 [46, 61]: 8.91 µM
- TGI ([46]; read-out: pTGI (converted)): 3.24 µM
- CC50 [47, 61]: 4.37 µM
- TGI ([47]; read-out: pTGI (converted)): 0.0794 µM
- CC50 [48, 61]: 19.1 µM
- TGI ([48]; read-out: pTGI (converted)): 2.09 µM
- CC50 [49, 61]: 3.31 µM
- TGI ([49]; read-out: pTGI (converted)): 0.0813 µM
- CC50 [50, 61]: 15.8 µM
- TGI ([50]; read-out: pTGI (converted)): 1.1 µM
- CC50 [51, 61]: 0.0537 µM
- TGI ([51]; read-out: pTGI (converted)): 0.0191 µM
- CC50 [52, 61]: 3.47 µM
- TGI ([52]; read-out: pTGI (converted)): 0.646 µM
- CC50 [53, 61]: 6.92 µM
- TGI ([53]; read-out: pTGI (converted)): 0.309 µM
- CC50 [54, 61]: 15.1 µM
- TGI ([54]; read-out: pTGI (converted)): 4.79 µM
- CC50 [55, 61]: 12 µM
- TGI ([55]; read-out: pTGI (converted)): 3.02 µM
- CC50 [56, 61]: 1.91 µM
- TGI ([56]; read-out: pTGI (converted)): 0.347 µM
- CC50 [57, 61]: 10 µM
- TGI ([57]; read-out: pTGI (converted)): 2.19 µM
- CC50 [58, 61]: 0.191 µM
- TGI ([58]; read-out: pTGI (converted)): 0.0631 µM
- CC50 [59, 61]: 32.4 µM
- TGI ([59]; read-out: pTGI (converted)): 15.1 µM
- CC50 [60, 61]: 17 µM
- TGI ([60]; read-out: pTGI (converted)): 0.603 µM
